Active and inactive are the calls of the source. The calls are words filed in the database; no cut-off is given here.
Key:
[1] = Induction of singlet oxygen generation in cell free condition upon 635 nm semiconductor laser light irradiation by singlet oxygen sensor green dye based fluorescence spectrophotometeric analysis; format: functional
[2] = system: 4T1; assay: Phototoxicity against mouse 4T1 cells assessed as cell viability at 5 uM preincubated for 4 hrs followed by 0.5 to 2 J/cm2 light irradiation and measured after 24 hrs by MTT assay; format: functional, cell-based
[3] = system: MDA-MB-231; assay: Phototoxicity against human MDA-MB-231 cells assessed as cell viability at 5 uM preincubated for 4 hrs followed by 0.5 to 2 J/cm2 light irradiation and measured after 24 hrs by MTT assay; format: functional, cell-based
[4] = system: MCF7; assay: Phototoxicity against human MCF7 cells assessed as cell viability at 5 uM preincubated for 4 hrs followed by 0.5 to 2 J/cm2 light irradiation and measured after 24 hrs by MTT assay; format: functional, cell-based
[5] = Dark toxicity against mouse 4T1 cells assessed as cell viability at 5 uM after 24 hrs by MTT assay; format: cell-based; conditions: 4t1, 24 h
[6] = Dark toxicity against human MDA-MB-231 cells assessed as cell viability at 5 uM after 24 hrs by MTT assay; format: cell-based; conditions: mda-mb-231, 24 h
[7] = Dark toxicity against human MCF7 cells assessed as cell viability at 5 uM after 24 hrs by MTT assay; format: cell-based; conditions: mcf7, 24 h
[8] = Selectivity index, ratio of dark toxicity against human MDA-MB-231 cells at 5 uM to phototoxicity against human MDA-MB-231 cells at 5 uM; format: cell-based; conditions: read-out: Selectivity Index
[9] = Selectivity index, ratio of dark toxicity against mouse 4T1 cells at 5 uM to phototoxicity against mouse 4T1 cells at 5 uM; format: cell-based; conditions: read-out: Selectivity Index
[10] = Selectivity index, ratio of dark toxicity against human MCF7 at 5 uM cells to phototoxicity against human MCF7 cells at 5 uM; format: cell-based; conditions: read-out: Selectivity Index
[11] = Drug uptake in human MDA-MB-231 cells up to 10 uM after 4 hrs by flow cytometric analysis; format: ADME, cell-based; conditions: mda-mb-231, 4 h
[12] = Drug uptake in human MDA-MB-231 cells at 5 to 10 uM after 4 hrs by fluorescence microscopic analysis; format: ADME, cell-based; conditions: mda-mb-231, 4 h
[13] = Drug uptake in kidney of BALB/c mouse xenografted with mouse 4T1 cells at 10 mg/kg, iv measured at 12 hrs post injection by IVIS spectrum imaging; format: ADME, organism-based; conditions: in vivo
[14] = Drug uptake in lung of BALB/c mouse xenografted with mouse 4T1 cells at 10 mg/kg, iv measured at 12 hrs post injection by IVIS spectrum imaging; format: ADME, organism-based; conditions: in vivo
[15] = Drug uptake in spleen of BALB/c mouse xenografted with mouse 4T1 cells at 10 mg/kg, iv measured at 12 hrs post injection by IVIS spectrum imaging; format: ADME, organism-based; conditions: in vivo
[16] = Drug uptake in heart of BALB/c mouse xenografted with mouse 4T1 cells at 10 mg/kg, iv measured at 12 hrs post injection by IVIS spectrum imaging; format: ADME, organism-based; conditions: in vivo
[17] = Drug uptake in mitochondria of human MDA-MB-231 cells after 4 hrs by Mito tracker green-based confocal laser scanning microscopic analysis; format: ADME; conditions: mda-mb-231, 4 h
[18] = Drug uptake in tumor of BALB/c mouse xenografted with mouse 4T1 cells at 10 mg/kg, iv measured at 12 hrs post injection by IVIS spectrum imaging; format: ADME, organism-based, Neoplasm; conditions: in vivo
[19] = system: MDA-MB-231; assay: Induction of ROS generation in human MDA-MB-231 cells incubated with DCF-DA probe for 30 mins by flow cytometric analysis (reference value: 4.38%); format: cell-based; conditions: mda-mb-231, 0.5 h
[20] = system: MDA-MB-231; assay: Induction of ROS generation in human MDA-MB-231 cells incubated with DCF-DA probe for 30 mins followed by 2 J/cm2 light irradiation and measured after 1 hr by flow cytometric analysis (reference value: 4.38%); format: functional
[21] = Drug uptake in tumor of BALB/c mouse xenografted with mouse 4T1 cells at 10 mg/kg, iv measured up to 3 to 24 hrs post injection by fluorescence assay; format: ADME, organism-based, Neoplasm; conditions: in vivo
[22] = system: MDA-MB-231; assay: Induction of ROS generation in human MDA-MB-231 cells incubated with DCF-DA probe for 30 mins prior to ROS scavenger NAC addition 1 hr before 2 J/cm2 light irradiation and measured after 1 hr post irradiation by flow cytometric analysis; format: functional, cell-based
[23] = Tmax in tumor of BALB/c mouse xenografted with mouse 4T1 cells at 10 mg/kg, iv measured after […] by fluorescence assay; format: ADME, organism-based, Neoplasm
[24] = system: MDA-MB-231; assay: Induction of apoptosis in human MDA-MB-231 cells assessed as early apoptotic cells after 24 hrs by Annexin-V FITC/propidium iodide staining based flow cytometric analysis (reference value: 1.22%); format: cell-based; conditions: mda-mb-231, 24 h
[25] = system: MDA-MB-231; assay: Induction of apoptosis in human MDA-MB-231 cells assessed as late apoptotic cells after 24 hrs by Annexin-V FITC/propidium iodide staining based flow cytometric analysis (reference value: 1.28%); format: cell-based; conditions: mda-mb-231, 24 h
[26] = system: MDA-MB-231; assay: Induction of apoptosis in human MDA-MB-231 cells assessed as necrotic cells after 24 hrs by Annexin-V FITC/propidium iodide staining based flow cytometric analysis (reference value: 4.24%); format: cell-based; conditions: mda-mb-231, 24 h
[27] = Induction of apoptosis in human MDA-MB-231 cells assessed as viable cells after 24 hrs by Annexin-V FITC/propidium iodide staining based flow cytometric analysis (reference value: 93.27%); format: cell-based; conditions: read-out: Activity
[28] = system: MDA-MB-231; assay: Induction of apoptosis in human MDA-MB-231 cells assessed as early apoptotic cells after 24 hrs upon light irradiation by Annexin-V FITC/propidium iodide staining based flow cytometric analysis (reference value: 1.22%); format: functional
[29] = system: MDA-MB-231; assay: Induction of apoptosis in human MDA-MB-231 cells assessed as late apoptotic cells after 24 hrs upon light irradiation by Annexin-V FITC/propidium iodide staining based flow cytometric analysis (reference value: 1.28%); format: functional
[30] = system: MDA-MB-231; assay: Induction of apoptosis in human MDA-MB-231 cells assessed as necrotic cells after 24 hrs upon light irradiation by Annexin-V FITC/propidium iodide staining based flow cytometric analysis (reference value: 4.24%); format: functional
[31] = system: MDA-MB-231; assay: Induction of apoptosis in human MDA-MB-231 cells assessed as viable cells after 24 hrs upon light irradiation by Annexin-V FITC/propidium iodide staining based flow cytometric analysis (reference value: 93.27%); format: functional
[32] = system: 4T1; assay: Antitumor activity against mouse 4T1 cells xenografted in BALB/c mouse assessed as tumor growth inhibition at 4 mg/kg, iv pretreated for 24 hrs followed by 50 J/cm2 light irradiation and measured at day 22 post last dose; format: functional, organism-based
[33] = system: 4T1; assay: Induction of apoptosis in mouse 4T1 cells xenografted in BALB/c mouse at 4 mg/kg, iv pretreated for 24 hrs followed by 50 J/cm2 light irradiation by TUNEL assay; format: functional, organism-based
[34] = system: Mus musculus; assay: Toxicity in BALB/c mouse xenografted with mouse 4T1 cells assessed as effect on body weight at 4 mg/kg, iv measured at day 22 post last dose; format: organism-based; conditions: in vivo
[35] = system: Mus musculus; assay: Toxicity in BALB/c mouse xenografted with mouse 4T1 cells assessed as effect on body weight at 4 mg/kg, iv pre-tretaed for 24 hrs followed by 50 J/cm2 light irradiation and measured at day 22 post dose; format: organism-based; conditions: in vivo
[36] = system: Mus musculus; assay: Hepatotoxicity in BALB/c mouse xenografted with mouse 4T1 cells assessed as pathological changes in liver at 4 mg/kg, iv pre-tretaed for 24 hrs followed by 50 J/cm2 light irradiation and measured at day 22 post dose by hematoxylin and eosin staining based light microscopic analysis; format: toxicity, organism-based; conditions: in vivo
[37] = system: Mus musculus; assay: Nephrotoxicity in BALB/c mouse xenografted with mouse 4T1 cells assessed as pathological changes in kidney at 4 mg/kg, iv pre-tretaed for 24 hrs followed by 50 J/cm2 light irradiation and measured at day 22 post dose by hematoxylin and eosin staining based light microscopic analysis; format: toxicity, organism-based; conditions: in vivo
[38] = system: Mus musculus; assay: Toxicity in BALB/c mouse xenografted with mouse 4T1 cells assessed as pathological changes in spleen at 4 mg/kg, iv pre-tretaed for 24 hrs followed by 50 J/cm2 light irradiation and measured at day 22 post dose by hematoxylin and eosin staining based light microscopic analysis; format: organism-based; conditions: in vivo
[39] = system: Mus musculus; assay: Toxicity in BALB/c mouse xenografted with mouse 4T1 cells assessed as pathological changes in lung at 4 mg/kg, iv pre-tretaed for 24 hrs followed by 50 J/cm2 light irradiation and measured at day 22 post dose by hematoxylin and eosin staining based light microscopic analysis; format: organism-based; conditions: in vivo

COC(C)C1=C(C)c2cc3[nH]c(cc4nc(cc5[nH]c(cc1n2)c(C)c5CCC(=O)O)C(CCC(=O)O)=C4C)c(C)c3C(C)O (centres undefined)
Activity [1]: Dose-dependent effect
Activity [2]: Active
Activity [3]: Active
Activity [4]: Active
Activity [5]: Non-Toxic
Activity [6]: Non-Toxic
Activity [7]: Non-Toxic
selectivity ratio at 5 µM [8]: 18.8
selectivity ratio at 5 µM [9]: 12
selectivity ratio at 5 µM [10]: 16.8
Drug uptake [11]: Not Active
Drug uptake [12]: Not Active
Drug uptake [13]: Not Active
Drug uptake [14]: Not Active
Drug uptake [15]: Not Active
Drug uptake [16]: Not Active
Drug uptake [17]: Active
Drug uptake [18]: Active
Activity [19]: 5.7%
Activity [20]: 25.13%
Drug uptake [21]: Active
Activity [22]: inactive
Tmax [23]: 12 h
Activity [24]: 1.99%
Activity [25]: 1.76%
Activity [26]: 4.02%
viability at 24 h [27]: 92.2%
Activity [28]: 3.91%
Activity [29]: 30.5%
Activity [30]: 6.83%
Activity [31]: 58.77%
TGI [32]: inactive
Activity [33]: Active
Activity [34]: Non-Toxic
Activity [35]: Non-Toxic
Activity [36]: Non-Toxic
Activity [37]: Non-Toxic
Activity [38]: Non-Toxic
Activity [39]: Non-Toxic

Reference: ChEMBL document CHEMBL4229478, “Synthesis, Characterization, and Biological Evaluation of a Porphyrin-Based Photosensitizer and Its Isomer for Effective Photodynamic Therapy against Breast Cancer” (J Med Chem, 2018)
